Source: PMC9705314, “Characterization of a new potent and long-lasting single chain peptide agonist of RXFP1 in cells and in vivo translational models” (Scientific Reports, 2022)
Substitutions are numbered along the chain they refer to.

What was measured:
[1] = target: T1, hRXFP1 (F76V) (Homo sapiens, UniProt Q9HBX9, F76V); assay: cAMP production in HEK cells expressing hRXFP1 (F76V); format: cell-based; conditions: hRXFP1 F76V mutant, n = 4 experiments in duplicate
T1 sequence (Q9HBX9 1-757 F76V): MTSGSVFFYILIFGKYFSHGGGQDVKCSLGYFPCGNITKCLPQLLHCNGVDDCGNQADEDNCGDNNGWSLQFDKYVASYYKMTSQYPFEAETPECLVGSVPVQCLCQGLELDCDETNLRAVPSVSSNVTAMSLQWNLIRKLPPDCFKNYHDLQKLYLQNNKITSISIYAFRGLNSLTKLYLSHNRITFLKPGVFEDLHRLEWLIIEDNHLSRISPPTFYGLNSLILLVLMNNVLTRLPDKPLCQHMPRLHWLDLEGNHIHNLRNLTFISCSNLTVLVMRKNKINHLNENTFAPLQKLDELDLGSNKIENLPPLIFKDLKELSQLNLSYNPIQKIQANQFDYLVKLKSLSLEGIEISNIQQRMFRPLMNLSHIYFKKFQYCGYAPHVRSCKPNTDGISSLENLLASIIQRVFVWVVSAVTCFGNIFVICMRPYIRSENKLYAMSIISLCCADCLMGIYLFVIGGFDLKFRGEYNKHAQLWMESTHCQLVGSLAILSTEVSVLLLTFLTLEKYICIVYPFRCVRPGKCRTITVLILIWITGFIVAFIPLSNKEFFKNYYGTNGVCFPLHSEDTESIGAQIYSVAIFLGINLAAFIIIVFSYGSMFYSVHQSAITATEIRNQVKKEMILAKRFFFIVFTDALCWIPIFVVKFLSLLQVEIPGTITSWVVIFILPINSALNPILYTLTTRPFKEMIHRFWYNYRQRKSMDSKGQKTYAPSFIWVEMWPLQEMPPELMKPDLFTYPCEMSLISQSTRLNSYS
Protocol: (§1) HEK cells were stably transduced with lentiviral constructs (Vectalys, MOI 20, batches rV2.1A1.5057 B, rV2.1A1.5056 B and rV2.1A1.5059 B) containing a bicistronic vectors encoding hRXFP1 (S69P) or hRXFP1 (F76V) or hRXFP1 (S69P/F76V) under the EF1 promoter followed by an internal ribosome entry site (IRES) elements to express the neomycin antibiotic resistance gene for selection with 500 μg/mL Geneticin (Invitrogen, #10131-019). Three days post transduction, HEK cells were grown in the presence of Genetecin. Positive individual clones were selected and amplified, and cAMP readout (nM) was used as described for other cell types at a cell density of 8000 cells/well.

[2] = target: T2, hRXFP1 (S69P/F76V) (Homo sapiens, UniProt Q9HBX9, F76V/S69P); assay: cAMP production in HEK cells expressing hRXFP1 (S69P/F76V); format: cell-based; conditions: hRXFP1 F76V-S69P dual mutant, n = 4 experiments in duplicate
T2 sequence (Q9HBX9 1-757 S69P/F76V): T1 sequence (Q9HBX9 1-757 F76V) with S69P
Protocol: as §1

relaxin
cAMP response (efficacy) [1]: reduced in all RXFP1 mutants compared to the wild type construct
cAMP response (efficacy) [2]: reduced in all RXFP1 mutants compared to the wild type construct
